Consider nine molecules from paper PMC11623267, “Inhibitors of malaria parasite cyclic nucleotide phosphodiesterases block asexual blood-stage development and mosquito transmission” (Science Advances, 2024).

Test [1] deals with PDE activity in cell extracts of malaria parasites. Details: method as in PMID 16038615, PMID 25951195. Conditions: read-out: IC50 against PDE activity in cell extracts; cited from earlier work.
Test [2] relates to P. falciparum (clone 3D7). In words: Parasite reduction ratio (PRR) assay. The test is classed as cell-based, Plasmodium falciparum. The settings on record: for Slope: 10× EC50, 3D7 killing profile. As to the method: The in vitro killing profile of compounds was determined by monitoring the ability of parasites to recover following treatment with a compound of interest using a previously reported approach ([50]), which allowed calculation of the PRR ([51]). […] To quantify the number of viable parasites following treatment, four independent sets of threefold serial dilutions were performed on each sample, which were assayed for the presence or absence of parasites after 28 days using the LDH assay, and the number of viable parasites was determined by the number of wells showing growth. PRR and PCT99.9% were calculated as previously reported ([50]).

Test [3] deals with P. falciparum clinical isolates from Porto Velho, Brazil. The test is described as follows: Ex vivo schizont maturation assay, Brazilian clinical isolates. The test is classed as cell-based, Plasmodium falciparum. Conditions: Plasmodium falciparum. As to the method:
Only monoinfected patients with P. falciparum with parasitemia between 2000 and 80,000 parasites/μl and with at least 70% of ring-stage parasites were recruited. Patients who had used an antimalarial in the previous month and/or presented with symptoms of severe malaria were excluded from the study. The study cohort comprised 24 patients living in this highly endemic area. A peripheral venous blood sample (5 ml) was collected from each individual by venipuncture in heparin-containing tubes and immediately used in the ex vivo drug susceptibility assay using preprepared plates containing diluted antimalarial compounds. […] Last, 20 μl of each dilution was transferred into the ex vivo assay plate and diluted 10-fold into the final assay medium containing parasites. For the infected blood preparation, 5 ml of whole blood was centrifuged at 800g for 10 min, and the plasma and buffy coat were removed. […] Control assays on a 3D7 laboratory isolate were performed with medium supplemented with human serum (20%). The iRBC (180 μl per well) were distributed in the predosed drug plate. […] Control wells containing drug-free iRBCs were cultured with complete medium. The parasite-drug incubation was terminated when 40% of the ring stages reached the schizont stage (at least three distinct nuclei per parasite) in the drug-free control wells. Thick blood films were then made from each well, dried, stained with 5% Giemsa solution for 30 min, and examined microscopically. The number of schizonts per 200 asexual-stage parasites was determined for each drug concentration and then normalized by comparing with the schizont number in the drug-free control wells [considered as 100% ([64])]. The half-maximal drug inhibitory response (EC50) was estimated by curve fitting using software from the OriginLab Corporation, Northampton, MA, USA and comparing with parasite growth in the drug-free controls.

Test [4] relates to P. falciparum clinical isolates from Tororo and Busia Districts of Uganda. The test is described as follows: Ex vivo 72-hour SYBR Green assay, Ugandan clinical isolates. The format is cell-based, Plasmodium falciparum. Conditions: Plasmodium falciparum. The text has this:
Clinical isolates were from the Tororo District of Uganda, located in the central-eastern part of the county near the Kenya border. Tororo and surrounding areas have high-intensity, year-round malaria transmission. […] Patients reporting use of antimalarial treatment within the previous 30 days or with evidence of an infection with other Plasmodium species were excluded. Informed consent was obtained from patients and/or primary care givers (depending on age); children aged 8 to 17 years provided assent. Two to 5 ml of blood was collected by venipuncture in a heparin tube. Samples were delivered to the adjacent IDRC laboratory at Tororo District Hospital or transported by car from Masafu Hospital on the day of collections for storage of blood spots on filter paper (for isolation of nucleic acids) and initiation of ex vivo culture of malaria parasites. Treatment involved a standard therapeutic regimen for uncomplicated falciparum malaria, which was a 3-day course of the artemisinin-based combination therapy (ACT), artemether-lumefantrine. In Uganda, at the time of sampling, there was widespread resistance to the antifolate drugs due to mutant pfdhfr/pfdhps alleles. […] Chloroquine was prepared at 10 mM in water. Stock solutions were stored at −20°C. Working solutions were freshly prepared from a single aliquot within 4 hours of the susceptibility test and stored at 4°C.
(§1) Samples were delivered to the adjacent IDRC laboratory at Tororo District Hospital or transported by car from Masafu Hospital on the day of collection for storage of blood spots on filter paper (for isolation of nucleic acids) and initiation of ex vivo culture of malaria parasites. […] Before assay, 10 mM antimalarial stock compounds were diluted as necessary in DMSO and stored at −20°C. […] Compounds were serially diluted threefold in a 96-well assay plate in complete medium to a final volume of 50 μl, in columns 1 to 10, with concentrations optimized to capture full dose-response curves. Column 11 contained compound-free controls, while column 12 contained uninfected human RBC controls. Parasite culture (150 μl) was added to columns 1 to 11 of the assay plate with a final volume of 200 μl per well, 0.2% parasitemia, and 2% hematocrit. […] Thawed plates were incubated with SYBR Green lysis buffer for 1 hour in the dark as previously reported ([62]). Fluorescence was quantified using a BMG Fluostar Optima plate reader at an excitation of 485 nm and an emission of 530 nm, and data were plotted using GraphPad Prism 7. The data were curve fit with a variable slope function to estimate IC50 values. For each isolate, a Z′ factor to assess assay quality was calculated from positive controls (eight drug-free wells) and negative controls (eight parasite-free, red cell control wells). Z′ values over 0.5 were considered good assays, but each curve was also examined by eye for suitability. Some assays with Z′ below 0.5 may be considered valid depending on factors such as the SE of the curve-fit IC50.

Test [5] relates to P. falciparum 3D7. The test is described as follows: Ex vivo 72-hour SYBR Green assay, 3D7 control (Uganda). The format is cell-based, Plasmodium falciparum. Conditions: Plasmodium falciparum, 3D7, read-out: EC50 lab strain 3D7. How it is done: as §1
For test [6], the system named is P. falciparum Dd2. The test is described as follows: Ex vivo 72-hour SYBR Green assay, Dd2 control (Uganda). The test is classed as cell-based, Plasmodium falciparum. Conditions: Plasmodium falciparum, DD2, read-out: EC50 lab strain Dd2. As to the method: as §1
Test [7] has as its system P. falciparum 3D7. The test is described as follows: P. falciparum 3D7 LDH growth inhibition assay (asexual blood stage). The test is classed as cell-based, Plasmodium falciparum. As to the method:
P. falciparum isolates (3D7/Dd2) were obtained from BEI Resources and were cultured using standard procedures as described elsewhere ([47]). Briefly, P. falciparum was grown in RPMI 1640 medium (10.3 g/liter) supplemented with L-glutamine (2 mM), hypoxanthine (150 μM), Hepes (25 mM), D-glucose (12 mM), sodium bicarbonate (25.7 mM), AlbuMAX II (0.5% or 5 g/liter) (pH 7.4), and 2% RBC (type O+, freshly prepared). Cultures were replenished with fresh medium and RBCs every other day. For RBC preparation, whole blood was centrifuged at 415g at room temperature for 12 min. After that, the plasma and buffy coat were removed, and packed RBCs were washed three times with 3 vol of RPMI 1640. Last, RBCs were resuspended in 1:1 vol of complete RPMI 1640 medium (containing 0.5% AlbuMAX II).
The P. falciparum 3D7 and Dd2 LDH growth inhibition assay was carried out as described elsewhere ([48]) with minor modification of the parasitological conditions (10 to 15% parasitemia with ≥80% rings). Data were normalized to percent growth inhibition with respect to […] (for 3D7, a mixture of 100 nM chloroquine and 100 nM atovaquone as 100% inhibition; for Dd2, a mixture of 200 nM DHA and 200 nM atovaquone as 100% inhibition) controls.

The target in test [8] is T1, PDEβ (Plasmodium falciparum, UniProt Q8I6Z7).
T1 construct: endogenous in cells; host or cells: P. falciparum 3D7 schizonts, NP-40 membrane lysate
In words: cAMP hydrolysis SPA in schizont membrane lysates. The settings on record: read-out: IC50 against PDEβ. The test is classed as biochemical. An excerpt:
We identified three PDE inhibitor chemical series generated by Pfizer, with structures in the public domain, which have activity against malaria parasites (see the “Chemistry strategy summary” section). These series were originally designed to inhibit human PDEs and were chosen as chemistry start points to optimize activity against malaria parasites. More than 400 new analogs were generated (full details of their properties will be reported in a separate paper, in preparation) through iterative rounds of synthesis and testing. The chemistry start points for each of the series were SAL-0010042 (5-benzyl), SAL-0010043 (5-aryl), and SAL-0010034 (2-alkyl) (see Materials and Methods and fig. S1A). S2. Analytical data for these compounds are provided in data S1. All newly synthesized compounds were tested for inhibition of native cAMP-PDE activity in mature schizont crude membrane preparations and inhibition of P. falciparum ABS growth. S3A. […] The unbound EC50 values for the compounds in the parasite growth inhibition assay were consistently calculated to be sevenfold higher than the IC50 values in the biochemical assay. Given that PDEβ is dual specific (i.e., can hydrolyze both cAMP and cGMP), we also determined IC50 values for cGMP hydrolysis. […] The IC50 values measured for cGMP hydrolysis in blood-stage schizonts were generally similar to those for cAMP hydrolysis (Table 1). […]
The cyclic nucleotide hydrolytic activity of membrane-associated parasite PDE enzymes was measured by a scintillation proximity assay (SPA) ([18]) using lysates of mature P. falciparum schizonts or stage IV/V gametocytes. […] The IC50 values for the compounds were determined using threefold serial dilutions in duplicate. […] The reactions were terminated by addition of 25 μl of PDE SPA beads (PerkinElmer, RPNQ0150), and after 20 min of incubation at room temperature, scintillation was measured using a Wallac 1450 Microbeta Counter (PerkinElmer) for 30 s. […]

The subject of test [9] is malaria parasites. Details: method as in PMID 25951195, PMID 33262483. The settings on record: cited from earlier work.
For test [10], the system named is P. falciparum ABS. The settings on record: read-out: Median effective dose, P. falciparum ABS growth inhibition; cited from earlier work.
Setting [11] is: read-out: EC50 clinical isolates, Gmean (geometric mean).
Setting [12] is: read-out: EC50 clinical isolates, Median.
Where [13] appears, read: read-out: EC50 clinical isolates, Range.

Read-outs that look alike come from different tables or passages of the source. Some results are limits rather than exact numbers.

T1 sequence (Q8I6Z7 whole entry): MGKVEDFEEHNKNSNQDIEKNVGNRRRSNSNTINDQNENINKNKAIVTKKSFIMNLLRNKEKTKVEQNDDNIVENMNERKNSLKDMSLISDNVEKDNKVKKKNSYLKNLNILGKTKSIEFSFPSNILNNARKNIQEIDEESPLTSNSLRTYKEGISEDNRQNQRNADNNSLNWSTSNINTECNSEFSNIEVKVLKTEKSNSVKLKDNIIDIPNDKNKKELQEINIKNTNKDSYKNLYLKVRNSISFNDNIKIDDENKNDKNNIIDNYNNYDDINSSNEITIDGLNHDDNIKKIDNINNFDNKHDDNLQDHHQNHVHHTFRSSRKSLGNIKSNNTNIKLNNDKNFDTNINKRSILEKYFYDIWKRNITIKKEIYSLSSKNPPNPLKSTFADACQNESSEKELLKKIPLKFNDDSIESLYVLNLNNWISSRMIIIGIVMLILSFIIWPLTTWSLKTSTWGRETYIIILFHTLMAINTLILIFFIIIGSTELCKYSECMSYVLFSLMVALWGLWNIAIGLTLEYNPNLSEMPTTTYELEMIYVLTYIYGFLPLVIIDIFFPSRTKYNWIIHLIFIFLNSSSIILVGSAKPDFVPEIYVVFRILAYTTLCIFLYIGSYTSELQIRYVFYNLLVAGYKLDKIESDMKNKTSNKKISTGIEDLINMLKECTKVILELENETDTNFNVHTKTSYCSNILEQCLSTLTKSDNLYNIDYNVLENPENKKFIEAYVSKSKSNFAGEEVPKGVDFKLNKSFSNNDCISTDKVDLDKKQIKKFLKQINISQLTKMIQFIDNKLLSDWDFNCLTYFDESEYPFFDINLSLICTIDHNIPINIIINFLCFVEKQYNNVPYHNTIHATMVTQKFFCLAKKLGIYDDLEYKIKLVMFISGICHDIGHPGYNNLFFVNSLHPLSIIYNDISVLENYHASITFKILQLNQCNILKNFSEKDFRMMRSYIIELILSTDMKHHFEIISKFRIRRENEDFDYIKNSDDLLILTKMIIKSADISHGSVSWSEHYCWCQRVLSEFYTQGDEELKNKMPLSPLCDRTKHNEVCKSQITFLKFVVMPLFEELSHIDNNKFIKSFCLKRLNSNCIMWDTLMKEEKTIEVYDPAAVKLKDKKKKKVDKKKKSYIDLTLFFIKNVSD

Broadly, the IC50 is the point on the concentration scale where inhibition reaches its midpoint. `CC(C)Cn1c(=O)n(C)c(=O)c2[nH]cnc21` [3-isobutyl-1-methylxanthine]: the IC50 in test [1] was greater than 100 µM.

With `CCN(CC)CCCC(C)Nc1ccnc2cc(Cl)ccc12` (centres unmarked) [Chloroquine, reference compound], the Lag phase in test [2] (10× EC50, 3D7) is 0 h. The “PCT99.9% (hours taken to kill 99.9% of the parasites)” value in [2] (10× EC50, 3D7) turned out to be 39.0 h. Also, the Slope in test [2] is −0.0717 ± 0.0037. For the same molecule, the EC50 was 0.626 to 2.6 µM in test [3] (read-out: EC50 range, clinical isolates); 1.2 µM in test [3] (read-out: Median EC50, clinical isolates); 0.013 µM in test [4] (setting [11]); 0.014 µM in test [4] (setting [12]); 0.002 to 0.025 µM in test [4] (setting [13]); 0.0094 µM in test [5]. For the same molecule, in [6], the EC50 amounted to 0.347 µM.

Take `CCc1nc(N)nc(N)c1-c1ccc(Cl)cc1` [Pyrimethamine, reference compound]: the Lag phase in [2] (10× EC50, 3D7) was 24 h. Besides, in [2] (10× EC50, 3D7), the “Log PRR” value is 3.2. The “PCT99.9% (hours taken to kill 99.9% of the parasites)” value in test [2] (10× EC50, 3D7) was 63.1 h. Further, the Slope in test [2] is recorded as −0.0667 ± 0.0059. Further, the EC50 in test [4] (setting [11]) is 41.6 µM; in test [4] (setting [12]) it was 39.3 µM; in test [4] (setting [13]), 15.9 to 196 µM; in [4] (read-out: Geometric mean EC50, Ugandan isolates (Fig. 3B)), 41.6 µM; in test [5], 0.046 µM; in test [6], 21.7 µM.

`Cn1c(=O)c2c(ncn2C)n(C)c1=O` [caffeine]: in test [1], the IC50 was greater than 100 µM.

Consider `CCCc1n[nH]c2c(=O)[nH]c(-c3cc(S(=O)(=O)N4CCN(C)CC4)ccc3OCC)nc12` [des-Me sildenafil, desmethyl (des-Me) sildenafil], for which the EC50 in test [7] (Plasmodium falciparum, 3D7, read-out: EC50 against ABS parasites) was 0.415 µM. For the same molecule, the “Difference in ABS EC50 vs sildenafil” value in test [7] (des-Me sildenafil vs sildenafil) is listed as greater than 60 fold. Further, the half-inhibitory concentration (IC50) in test [8] amounted to 0.0367 µM.

Take `COc1ccc(C2CNC(=O)C2)cc1OC1CCCC1` (centres unmarked) [rolipram]: in [1], the half-inhibitory concentration (IC50) was greater than 100 µM.

In the case of `CN1CC(=O)N2[C@H](c3ccc4c(c3)OCO4)c3[nH]c4ccccc4c3C[C@@H]2C1=O` [tadalafil], the “IC50 against malaria parasites” value in test [9] is reported as “mid-to-high micromolar range”.

Regarding `Cn1c(=O)c2[nH]cnc2n(C)c1=O` [theophylline], the IC50 in test [1] was greater than 100 µM.

Turning to `CCCOc1ccccc1-c1nc2nn[nH]c2c(=O)[nH]1` [zaprinast], in test [10], the EC50 was 35 µM.
